{"source": "patent US9480702B2", "about": "“Use of chemically modified heparin derivates in sickle cell disease” (DILAFORETTE AB, priority 2011, dated 2016)", "key": {"[1]": {"assay": "Bleeding time after tail incision in rats", "format": "in vivo, Sprague-Dawley rats", "conditions": "for Estimated equipotent doses with respect to effects on bleeding time, normalized vs. heparin: rats, i.v. dosing, heparin = 1", "protocol": "(§1) Test procedures were as follows:\nThe incision was 9 mm long and 1 mm deep and was standardized using a template device. Blood was blotted from the incision until bleeding stopped. The time during which visible bleeding could be observed was measured, for up to 25 minutes. The longer the bleeding time, the more pronounced the anti-coagulant effects of the administered agent.\n(§2) Saline: (Negative Control) • 3."}, "factor Xa [2]": {"tested_on": "factor Xa", "conditions": "comparison value; cited from earlier work"}, "factor IIa [3]": {"target": "T1, factor IIa (Homo sapiens, UniProt P00734+P01008)", "conditions": "comparison value; cited from earlier work"}, "[4]": {"assay": "APTT in citrate plasma of dosed rats", "format": "in vivo, Sprague-Dawley rats", "conditions": "i.v. dosing, heparin = 1", "protocol": "as §1\nCitrate stabilized plasma was prepared from the blood.\nas §2"}, "human P-selectin": {"target": "T2, human P-selectin (Homo sapiens, UniProt P16109)", "T2 construct": "Fc (IgG Fc fusion partner)", "T2 sequence (P16109 with tags, fused parts or gaps limits assumed)": "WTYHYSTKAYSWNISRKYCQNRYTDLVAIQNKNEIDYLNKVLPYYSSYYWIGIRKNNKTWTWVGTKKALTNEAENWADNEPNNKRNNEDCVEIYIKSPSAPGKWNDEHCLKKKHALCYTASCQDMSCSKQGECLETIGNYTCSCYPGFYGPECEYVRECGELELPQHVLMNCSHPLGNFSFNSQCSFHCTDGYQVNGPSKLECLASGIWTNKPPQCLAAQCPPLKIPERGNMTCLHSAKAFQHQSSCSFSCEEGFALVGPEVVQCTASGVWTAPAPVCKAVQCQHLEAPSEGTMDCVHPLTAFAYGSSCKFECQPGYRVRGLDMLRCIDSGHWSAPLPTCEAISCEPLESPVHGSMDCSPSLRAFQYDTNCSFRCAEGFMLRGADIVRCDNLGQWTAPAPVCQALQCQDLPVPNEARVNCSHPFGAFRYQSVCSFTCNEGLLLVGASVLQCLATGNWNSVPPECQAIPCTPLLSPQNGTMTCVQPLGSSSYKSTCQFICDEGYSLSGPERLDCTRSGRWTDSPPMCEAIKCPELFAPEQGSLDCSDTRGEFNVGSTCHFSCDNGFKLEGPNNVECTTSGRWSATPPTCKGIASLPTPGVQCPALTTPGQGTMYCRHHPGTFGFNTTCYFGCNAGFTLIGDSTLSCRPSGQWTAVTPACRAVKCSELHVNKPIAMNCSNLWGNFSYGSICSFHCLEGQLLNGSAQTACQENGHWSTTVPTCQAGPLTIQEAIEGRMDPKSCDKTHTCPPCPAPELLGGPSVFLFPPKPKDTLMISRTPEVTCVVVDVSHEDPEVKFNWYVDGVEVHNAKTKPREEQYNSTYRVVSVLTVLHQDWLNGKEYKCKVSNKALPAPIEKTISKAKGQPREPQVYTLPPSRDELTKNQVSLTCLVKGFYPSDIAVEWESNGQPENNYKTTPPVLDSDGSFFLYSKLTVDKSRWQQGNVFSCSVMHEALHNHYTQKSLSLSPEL", "assay": "Binding to P-selectin analyzed by optical biosensor (surface plasmon resonance, Biacore 2000)", "conditions": "read-out: apparent KD", "protocol": "The heparin derivatives were desalted and transferred into running buffer using desalting columns. The molar concentrations of the eluates were determined by analysis of UA content (mg/ml) using the phenylphenol method (Blumenkrantz et al. 1973 Anal Biochem 54, 484-9). […] The data was analyzed using BIAevaluation software, version 3. To prepare the biosensor assay, the capturing affinity purified goat anti-human IgG Fc antibody was immobilized onto a carboxymethyl dextran chip. The antibody was injected at a concentration of 50 μg/ml in 50 mM sodium acetate buffer, pH 5.0 for 12 min at […] resulting in a final response of approximately 16,200 response units (RU) in flow cell 1 and 13,400 RU in flow cell 2. Remaining activated groups were blocked with an injection of ethanolamine-HCl. The P-selectin/Fc chimera was captured onto the antibody surface in flow cell 2 (Bachelet L. et al. 2009, Biochim et Biophys Acta 1790, 1416), by injecting the molecule at a concentration of 35 ug/mL, using running buffer (10 mM Hepes, 150 mM NaCl, 1 mM CaCl2, 0.005% Tween-20, pH 7.4, filtered 0.02 μm) in the mobile phase. […] The binding of different heparin derivatives to P-selectin was analyzed using running buffer at 20 μl/min. After the association and dissociation phase of each sample, regeneration of the surface was performed using running buffer containing 0.8 M NaCl. Data from the reference surface was subtracted from the data from the P-selectin surface. Stability of the P-selectin surface was verified by measuring the response from injections of 0.1 mg/mL heparin in the beginning and the end of each experiment.\nThe response data at steady-state was plotted against the concentration (data not shown). The data was analyzed using non-linear regression, assuming 1:1 binding. […] The peak value (Mp) was used instead of the (higher) Mw value when calculating the molar concentrations of UFH."}, "[5]": {"conditions": "daily prophylactic dose, four patients; cited from earlier work"}, "[6]": {"tested_on": "SS RBC adhesion to endothelial cells treated with IL-13 and histamine", "assay": "In vitro sickle red blood cell adhesion to HUVECs in flow chamber", "format": "cell-based, human", "conditions": "for Inhibition of SS RBC adhesion to endothelial cells (overall): HUVECs stimulated with IL-13 and histamine", "protocol": "Primary HUVECs (passage 4 only) were cultured to confluency on gelatin-coated slides in […] basal medium 2 (EBM2; Clonetics, Walkersville, Md.) supplemented with endothelial growth medium 2 (EGM2; Clonetics, Walkersville, Md.). For each assay, a gelatin coated slide with HUVECs grown to confluence was mounted inside a graduated height flow chamber. Both untreated and IL-13/histamine-stimulated slides were initially studied with each SS RBC sample. Subsequent experiments then compared adhesion with and without potential inhibitors of adhesion.\nHuman blood samples from patients homozygous for hemoglobin S were collected into citrate tubes.\nIn vitro studies of cell adhesion exposed to flowing conditions represent in vivo events, as compared to adhesion assays in which cells are simply allowed to incubate overlaid on a chemical or cellular substrate (e.g. laminin or endothelial cells) and then washed off by either non-controlled forces (e.g. pipette washes) or controlled forces (e.g. rotary motion devices). Flow chambers can produce either a constant shear stress throughout the chamber or a variable shear stress, produced by creating a variable height for the chamber.\nSurface expression of P-selectin on IL-13 and histamine stimulated and unstimulated endothelial cells (HUVECs) were tested by flow cytometry. Measurement of the ability of SS RBC to adhere to these endothelial cells was performed in flow chambers. Negative control experiments included untreated endothelial cells, so that SS RBC adhesion to treated and untreated cells could be compared.\nMultiple dose-finding experiments were conducted."}, "[7]": {"conditions": "cited from earlier work"}, "factor IIa [8]": {"target": "T1, factor IIa", "conditions": "measured values on the produced DF02"}, "factor Xa [9]": {"tested_on": "factor Xa", "conditions": "measured values on the produced DF02"}, "[10]": {"tested_on": "SS RBC adhesion to the endothelium", "source_text": "These experiments utilize a previously described animal model (Zennadi et al. Blood 2007), in which window chambers are first implanted into the flanks of nude mice. Three to five days later, human normal or sickle red cells are infused into the mouse (usually through the tail vein) pre-treated with TNF-α (to induce inflammation and upregulate P-selectin expression); mice treated with vehicle only may be studied as controls. Female mice (nu−/nu−) 8-12 weeks in age from Jackson Laboratories, Bar Harbor, Me., were used to perform experiments described.\nRBCs to be infused are pre-labelled with a fluorescent dye. The cells' adhesion may then be observed in subdermal blood vessels visible through the previously implanted window chambers. […] In addition, in some of these experiments, blood samples were drawn during the observation period in order to quantitate specific variables, such as cell survival. This model has the great advantages of providing direct visualization of cells in the context of whole blood and of allowing circulation of transfused cells under normal circulatory pressures."}, "[11]": {"conditions": "steady-state response, non-linear regression assuming 1:1 binding, P-selectin/Fc chimera captured on chip"}, "[12]": {"conditions": "injected before and after induction of vaso-occlusion"}}, "note": "Entries after “also recorded” stand apart in the source; their conditions may differ. Where two headings read alike, the source gives them in different places."}
{"substance": "Heparin Sodium", "values": [{"measurement": "Anti-coagulant effect (bleeding time and coagulation parameters)", "setting": "[1]; adult rats, i.v.", "result": "profound dose-related effects on all parameters investigated"}, {"measurement": "Estimated equipotent doses with respect to effects on bleeding time, normalized vs. heparin", "setting": "[1]", "result": 1}, {"measurement": "Corresponding value of specific anticoagulant activity (anti-factor Xa)", "setting": "factor Xa [2]", "result": "at least 180 IU/mg"}, {"measurement": "Corresponding value of specific anticoagulant activity (anti-factor IIa)", "setting": "factor IIa [3]", "result": "at least 180 IU/mg"}, {"measurement": "Estimated equipotent doses with respect to effects on APTT, normalized vs. heparin", "setting": "[4]", "result": 1}, {"measurement": "Kd", "setting": "human P-selectin; [11]", "result": 200, "unit": "nM"}, {"measurement": "Pain and days at hospital", "setting": "[5]", "result": "pain reduction and fewer days at hospital"}]}
{"substance": "Tinzaparin natrium", "values": [{"measurement": "Inhibition of SS RBC adhesion to endothelial cells (overall)", "setting": "[6]", "result": "quite effective in reducing SS RBC adhesion"}, {"measurement": "Kd", "setting": "human P-selectin; [11]", "result": 4000, "unit": "nM"}, {"measurement": "Bleeding events", "setting": "[7]; clinical study", "result": "several cases of bleeding events"}, {"measurement": "Duration of hospitalization", "setting": "[7]; sickle VOC", "result": "significantly shortened"}, {"measurement": "Duration of the most-severe pain scores", "setting": "[7]; sickle VOC", "result": "significantly shortened"}]}
{"substance": "sevuparin sodium [DF02]", "values": [{"measurement": "Effect on SS RBC adhesion", "setting": "[6]; 100 μg/ml", "result": "appeared to inhibit adhesion as much as did higher concentrations; also recorded: easily detectable"}, {"measurement": "Inhibition of SS RBC adhesion compared to tinzaparin", "setting": "[6]; 400 μg/ml, most samples", "result": "equivalent to the same concentration of tinzaparin"}, {"measurement": "Effect on SS RBC adhesion", "setting": "[6]; 10 and 50 μg/ml", "result": "little effect"}, {"measurement": "Inhibition of SS RBC adhesion to endothelial cells (overall)", "setting": "[6]", "result": "able to inhibit SS RBC adhesion"}, {"measurement": "Anti-coagulant effect (bleeding time and coagulation parameters)", "setting": "[1]; adult rats, i.v.", "result": "reduced anti-coagulant effect"}, {"measurement": "Anti-coagulant effect (bleeding time and coagulation parameters)", "setting": "[1]; juvenile rats of age 14±1 days", "result": "reduced anti-coagulant effect"}, {"measurement": "Estimated equipotent doses with respect to effects on bleeding time, normalized vs. heparin", "setting": "[1]", "result": "30-50"}, {"measurement": "antiIIa activity", "setting": "factor IIa [8]", "result": "less than 10 IU/mg"}, {"measurement": "Effect on PT", "setting": "adult rats", "result": "too weak to allow for comparative estimates"}, {"measurement": "Effect on PT", "setting": "juvenile rats", "result": "weak"}, {"measurement": "antiXa activity", "setting": "factor Xa [9]", "result": "less than 10 IU/mg"}, {"measurement": "Vessel occupancy, decrease", "setting": "[10]; as compared to a saline injection", "result": 50, "unit": "%"}, {"measurement": "Effect on adhered SS-RBC", "setting": "[10]; [12]", "result": "inhibition and reversal of adhered SS-RBC"}, {"measurement": "Effect on blood flow", "setting": "[10]; [12]", "result": "partial normalization of the blood flow"}, {"measurement": "Number of vessels that reached a normalized blood flow", "setting": "[10]; mouse, in vivo", "result": "dose dependent effect"}, {"measurement": "Estimated equipotent doses with respect to effects on APTT, normalized vs. heparin", "setting": "[4]", "result": "30-40"}, {"measurement": "Kd", "setting": "human P-selectin", "result": 700, "unit": "nM"}]}
